Data on two compounds can be found in US20230192650A1, “NOVEL ACID SECRETION INHIBITOR AND USE THEREOF” (Ildong Pharmaceutical Co., Ltd., priority 2020, published 2023).

Like-named read-outs stand apart in the source and are kept apart here.

Experiment [1] has as its target T1, proton pump (H+/K+-ATPase) (Sus scrofa, UniProt P19156).
T1 construct: Gastric vesicles isolated from pig stomach were prepared according to the document; from tissue; host or cells: pig stomach (gastric vesicles)
As to the kind of experiment: Reversibility of proton pump inhibition by jump dilution method. The class given is biochemical, pig. The conditions noted are these: 0.2 μM compound. The method, then: In addition, in order to confirm the reversibility of the inhibition ability on the proton pump (H^+/K^+-ATPase) of the prepared compound, an experiment was performed by the jump dilution method. 6.25 μg of gastric vesicles isolated from pig stomach and 0.2 μM of each compound were pre-incubated for 120 minutes, and then the enzyme activity before dilution and the enzyme activity after 50-fold dilution were compared for each reaction time, and the reversibility was evaluated. In both Example 1 and Example 3, the inhibition ability of 50% or more was confirmed after 20 minutes of the reaction. On the other hand, when the reaction was performed for 60 minutes after the 50-fold dilution, in both Examples 1 and 3, the enzyme activity was recovered to 90% or more, and reversible results were confirmed.

Experiment [2] addresses human SSTR4 (Homo sapiens, UniProt P31391). In words: SSTR4 agonist effect (cell-based cAMP functional assay, HTRF). The conditions noted are these: CHO cells stably expressing human SSTR4, 37° C. 30 minutes, vs sst-14 10 nM. The method, then: The agonism effect on SSTR4 was confirmed by cell-based cAMP functional assay. CHO cells in which human SSTR4 was stably expressed were treated with test substances for each concentration and reacted at 37° C. for 30 minutes, and an amount of the produced cAMP was measured by the HTRF detection method. The % response compared to the reference control agonist (sst-14, 10 nM) was calculated, and the EC50 was calculated through the concentration-response curve.

Experiment [3] deals with basal gastric acid secretion. As to the kind of experiment: Inhibition of basal gastric acid secretion in pylorus-ligated rat (Shay's rat model). It is filed as in vivo. The note with it: SD rats, 10 mg/kg oral 1 h before pylorus ligation, 5 hours after ligation. The method, then:
The inhibitory efficacy of the prepared compound on basal gastric acid secretion was measured by employing the Shay's rat model [Shay H, et al., Gastroenterology, 1945, 5, 43˜61].
Male Sprague Dawley (SD) rats were divided into 8 rats per group, and fasted with only water supply for 24 hours. Then, one hour before pylorus ligation, the control group was orally administered with 0.5% methylcellulose solution, and the other groups were orally administered with the Example compound at a dose of 10 mg/10 mL/kg suspended in 0.5% methylcellulose solution.
After 5 hours of ligation, the rats were sacrificed under Zoletil and Xylazine anesthesia, and the gastric contents were enucleated by incision of the abdominal cavity. The obtained contents were centrifuged at 3,000 rpm for 10 minutes to separate only the supernatant, and gastric juice was collected. 1 mL of the collected gastric juice was taken into a beaker and the pH was measured using an electrode pH meter. To 1 mL of gastric juice, 0.03 mL each of 0.5% dimethylaminoazobenzene alcohol solution and 1% phenolphthalein alcohol solution was added to make red color, and then 0.1N NaOH solution was added, wherein the volume until the rose tint appeared was determined as the total acidity, and the total acid output was obtained by multiplying the acidity of gastric juice by the amount of gastric juice. The % inhibitory activity of the Example compound was calculated according to the following Equation 2, and results thereof are shown in Table 6 below.
% inhibitory activity of Example compound=[(total gastric acid secretion in Control group−total gastric acid secretion in group treated with Example compound)/total gastric acid secretion in Control group]×100 [Equation 2]

Experiment [4] has as its target T1, proton pump (H+/K+-ATPase). In words: Proton pump (H+/K+-ATPase) inhibitory activity depending on pH. It is filed as biochemical, pig. The method, then: The proton pump (H+/K+-ATPase) inhibitory activity of the prepared compound was measured as follows. Gastric vesicles isolated from pig stomach were prepared according to the document (see Methods Mol Biol. 2016; 1377:19-27). The protein contents of the gastric vesicles were quantified with a Bicinchoninic Acid (BCA) kit (Sigma Aldrich, BCA1). To each well of a 96-well plate, 70 μl of 50 mM Tris-HEPES buffer (pH 6.5) containing 125 ng of vesicles, DMSO or a substance for each concentration (final DMSO concentration of 1%), 5 mM MgCl2, and 10 mM KCl was added and pre-incubated at 37° C. for 30 minutes. Then, 10 μl of 2 mM ATP was added to each well, followed by enzymatic reaction at 37° C. for 40 minutes. The reaction was stopped by adding 20 μl of malachite green reagent (Sigma Aldrich, MAK307) and the resulting mixture was allowed to stand at room temperature for 30 minutes. By measuring the absorbance at 620 nm using a Microplate Reader (Biotek, Synergy H4), an amount of inorganic phosphorus released from ATP degradation was measured and the enzyme activity was measured. The absorbance of the enzyme-reacted sample without adding KCl was measured, and the measurement value was subtracted from all the above measurements. Assuming that the group treated with 1% DMSO (DMSO control group) was 100% H^+/K^+-ATPase enzyme activity, and that the group without KCl (KCl control group) was 0% H^+/K^+-ATPase enzyme activity, % inhibition was calculated as in the following Equation 1: […]
In order to measure the change in proton pump (H+/K+-ATPase) inhibitory activity depending on the pH of the prepared compound, an experiment was performed in the same manner as in Test Example 1 under three conditions of pH 6.5, pH 7.0, and pH 7.5.

Experiment [5] deals with indomethacin-induced gastric damage. As to the kind of experiment: Gastric damage inhibitory efficacy in rat of indomethacin-induced gastric damage. The class given is in vivo. The conditions noted are these: SD rats, 10 mg/kg oral 1 hour before indomethacin, 5 hours. The method, then: The experiment was performed as follows to evaluate the gastric ulcer inhibitory efficacy of the Example compound in rat models of gastric damage induced by indomethacin, a drug in the NSAID classes.
Among fasted male Sprague Dawley rats, the control group was orally administered with 0.5% methylcellulose solution, and the other groups were orally administered with the Example compound at a dose of 10 mg/10 mL/kg suspended in 0.5% methylcellulose solution.
In 1 hour after oral administration of the Example compound, indomethacin was orally administered, and after 5 hours, the test animals were sacrificed and the stomach was enucleated. After washing the enucleated surface of the stomach, the greater curvature of the stomach was incised. The incised stomach was spread out and fixed. Then, the ratio of the gastric damaged area was obtained by the total gastric area and the damaged area on the gastric mucosa surface using ImageJ software (NIH, Bethesda), and the % inhibitory activity of the Example compound was calculated according to the following Equation 3.
% inhibitory activity of Example compound=[(ratio of gastric damaged area in control group−ratio of gastric damaged area in group treated with Example compound)/(ratio of gastric damaged area in control group)]×100 [Equation 3]

Where [6] appears, read: after 20 minutes of the reaction, read-out: inhibition ability.
Setting [7] is: reaction time 20 min, after 50-fold dilution, read-out: % Inhibition.
Where [8] appears, read: reaction time 20 min, before dilution, read-out: % Inhibition.
[9] abbreviates: reaction time 60 min, after 50-fold dilution, read-out: % Inhibition.
[10] abbreviates: reaction time 60 min, before dilution, read-out: % Inhibition.
Setting [11] is: reaction time 120 min, after 50-fold dilution, read-out: % Inhibition.
Setting [12] is: reaction time 120 min, before dilution, read-out: % Inhibition.

T1 sequence (P19156 2-1034 limits assumed): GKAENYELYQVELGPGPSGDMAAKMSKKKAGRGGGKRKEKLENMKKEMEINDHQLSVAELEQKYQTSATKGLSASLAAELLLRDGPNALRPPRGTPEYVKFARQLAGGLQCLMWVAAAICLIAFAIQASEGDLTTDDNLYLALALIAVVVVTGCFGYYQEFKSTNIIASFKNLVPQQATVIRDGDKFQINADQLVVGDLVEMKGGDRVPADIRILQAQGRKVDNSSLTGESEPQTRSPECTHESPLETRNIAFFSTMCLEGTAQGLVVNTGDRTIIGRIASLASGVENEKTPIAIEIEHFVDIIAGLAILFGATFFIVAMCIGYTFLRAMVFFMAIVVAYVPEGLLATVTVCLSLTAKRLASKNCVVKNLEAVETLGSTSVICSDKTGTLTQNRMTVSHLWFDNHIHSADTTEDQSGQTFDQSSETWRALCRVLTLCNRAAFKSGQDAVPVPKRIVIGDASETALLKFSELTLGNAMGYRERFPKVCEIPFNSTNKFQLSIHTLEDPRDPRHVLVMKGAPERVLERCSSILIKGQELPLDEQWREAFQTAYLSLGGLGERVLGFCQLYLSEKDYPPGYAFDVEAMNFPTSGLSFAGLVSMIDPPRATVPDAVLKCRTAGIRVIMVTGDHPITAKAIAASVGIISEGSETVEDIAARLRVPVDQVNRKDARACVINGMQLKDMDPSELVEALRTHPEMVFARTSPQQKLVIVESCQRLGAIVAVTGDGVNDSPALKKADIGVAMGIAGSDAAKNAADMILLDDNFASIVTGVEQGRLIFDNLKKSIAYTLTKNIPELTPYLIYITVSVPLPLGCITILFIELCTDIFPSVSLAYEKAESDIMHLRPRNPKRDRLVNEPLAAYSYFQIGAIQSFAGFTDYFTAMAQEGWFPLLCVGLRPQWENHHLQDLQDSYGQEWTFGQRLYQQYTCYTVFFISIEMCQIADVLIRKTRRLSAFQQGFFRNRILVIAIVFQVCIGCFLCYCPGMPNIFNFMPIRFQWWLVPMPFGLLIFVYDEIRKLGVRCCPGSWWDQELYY
T1 sequence (P18434 whole entry partner): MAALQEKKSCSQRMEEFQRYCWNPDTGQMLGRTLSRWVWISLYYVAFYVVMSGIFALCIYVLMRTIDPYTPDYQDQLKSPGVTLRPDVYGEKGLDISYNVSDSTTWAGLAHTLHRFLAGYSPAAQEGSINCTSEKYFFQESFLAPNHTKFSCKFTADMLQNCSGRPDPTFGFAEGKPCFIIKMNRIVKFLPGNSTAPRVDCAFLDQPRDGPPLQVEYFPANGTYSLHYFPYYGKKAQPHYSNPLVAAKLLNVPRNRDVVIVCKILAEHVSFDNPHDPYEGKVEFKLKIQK
human SSTR4, sequence (P31391 whole entry): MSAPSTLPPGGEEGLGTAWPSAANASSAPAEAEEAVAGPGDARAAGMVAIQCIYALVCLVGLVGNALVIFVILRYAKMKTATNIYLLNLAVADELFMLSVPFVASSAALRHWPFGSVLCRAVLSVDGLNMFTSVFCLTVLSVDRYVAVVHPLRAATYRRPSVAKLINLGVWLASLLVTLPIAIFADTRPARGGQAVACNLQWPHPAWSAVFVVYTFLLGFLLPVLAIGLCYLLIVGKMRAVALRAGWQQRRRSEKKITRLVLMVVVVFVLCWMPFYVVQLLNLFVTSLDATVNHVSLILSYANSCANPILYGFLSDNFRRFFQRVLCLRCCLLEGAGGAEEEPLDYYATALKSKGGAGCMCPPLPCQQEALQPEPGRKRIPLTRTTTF

As for `CNCc1cn(S(=O)(=O)c2ccc(C)nc2)c(-c2ccc(F)cc2F)c1OC` [Example 3, 1-(5-(2,4-Difluorophenyl)-4-methoxy-1-((6-methylpyridin-3-yl)sulfonyl)-1H-pyrrol-3-yl)-N-methylmethanamine], the inhibition at 0.2 µM was at least 50% in experiment [1] (setting [6]); 20 to 50% in experiment [1] (setting [7]); at least 50% in experiment [1] (setting [8]); below 20% in experiment [1] (setting [9]); at least 50% in experiment [1] (setting [10]); below 20% in experiment [1] (setting [11]). Besides, the inhibition at 0.2 µM in experiment [1] (setting [12]) was at least 50%. In addition, the half-maximal effective concentration (EC50) in experiment [2] amounted to 3900 nM. Further, the “Inhibitory Activity (%) on total gastric acid secretion” value in experiment [3] is “+++ (90% or more: +++)”. In experiment [3], the “pH of gastric juice” value was 8.08 ± 0.24. Besides, the half-maximal inhibitory concentration (IC50) in experiment [4] (pH 6.5) was at most 100 nM; in experiment [4] (pH 7.0) it was 100 to 1000 nM; in experiment [4] (pH 7.5) it was 100 to 1000 nM. Besides, the “inhibition ability depending on pH” value in experiment [4] (pH 6.5, pH 7.0, pH 7.5 compared) is on record as “higher inhibition ability in a weakly acidic condition compared to a neutral condition”. For the same compound, the “Inhibitory Activity (%) on ratio of gastric damaged area” value in experiment [5] is “+++ (97% or more: +++)”.
As to `CNCc1cn(S(=O)(=O)c2ccc(OC)nc2)c(-c2ccccc2F)c1OC` [Example 1, 1-(5-(2-Fluorophenyl)-4-methoxy-1-((6-methoxypyridin-3-yl)sulfonyl)-1H-pyrrol-3-yl)-N-methylmethanamine], the inhibition at 0.2 µM is at least 50% in experiment [1] (setting [6]); 20 to 50% in experiment [1] (setting [7]); at least 50% in experiment [1] (setting [8]); below 20% in experiment [1] (setting [9]); at least 50% in experiment [1] (setting [10]); below 20% in experiment [1] (setting [11]). The inhibition at 0.2 µM in experiment [1] (setting [12]) is at least 50%. Further, the EC50 in experiment [2] was 780 nM. Further, in experiment [3], the “Inhibitory Activity (%) on total gastric acid secretion” value is “+++ (90% or more: +++)”. For the same compound, the “pH of gastric juice” value in experiment [3] came out at 8.25 ± 0.16. Moreover, the IC50 was at most 100 nM in experiment [4] (pH 6.5), at most 100 nM in experiment [4] (pH 7.0) and 100 to 1000 nM in experiment [4] (pH 7.5). Moreover, in experiment [5], the “Inhibitory Activity (%) on ratio of gastric damaged area” value is recorded as “+++ (97% or more: +++)”.
